The conditions of series [1]: over 7 days. As for the experimental part: The final conjugates mcp-M-alb-PSMA and mcp-D-alb-PSMA were successfully radiolabeled with ^225Ac at a concentration down to 10^-6 M with radiochemical conversions of higher than 99% within 15 min at room temperature and a resulting molar activity of 1 MBq/nmol. The radiolabeled actinium complexes [^225Ac]Ac-mcp-M-alb-PSMA and [^225Ac]Ac-mcp-D-alb-PSMA were characterized regarding decomplexation (by radio-TLC) and degradation (by radio-HPLC). […] Log D values for [^225Ac]Ac-mcp-M-alb-PSMA and [^225Ac]Ac-mcp-D-alb-PSMA were determined at pH 7.4 to be ‑2.4 and -1.7, respectively.
^225Ac was commercially supplied by ITM as [^225Ac]AcCl3. Radiolabeling was performed using 100 kBq ^225Ac, the respective ligand stem solution (10^-2 M - 10^-6 M) to reach the required ligand concentration (10^-3 M - 10^-7 M), the necessary amount of 2,5-dihydroxybenzoic acid (final concentration 0.1 M) and a volume of 0.2 M NH4OAc (pH 6) to adjust a total volume of 100 µL. […]
Once the labeling reaction was finished, samples were taken out and the ^225Ac-radioconjugates were analyzed via TLC (two systems: 1 - 0.05 M EDTA (pH 7) on silica plates; 2 - 70/30 acetonitrile/H2O on alugram RP-CN plates) and analytical HPLC on a Jasco HPLC system with GABI analyzer (Elysia Raytest) for gamma detection on a Phenomenex Phenyl-Hexyl column in water/acetonitrile (0.1% TFA each).

Another series deals with LNCaP cells. Nature of the series: Clonogenic survival assay. In kind it is cell-based, human. Particulars: for inhibition of colony formation: 1 h exposure; for EC50 for 1 h treatment: clonogenic survival of LNCaP cells, 95% confidence interval in brackets. On the procedure: Figure 3 Clonogenic survival of LNCaP cells after treatment with [^225Ac]Ac-mcp-M-alb-PSMA or [^225Ac]Ac-mcp-D-alb-PSMA for (A) 1 h or (B) 4 h, respectively. Cells were exposed to different activity concentrations of 225Ac-labeled PSMA conjugates for the indicated treatment time and thereafter supplemented with fresh medium. Eight days later, colonies formed were stained and counted by digital analysis. Data points represent the mean colony number of three samples, normalized to values obtained for the untreated reference samples.
Colony formation of LNCaP cells upon exposure to increasing activity concentrations of both ^225Ac-radioconjugates was analyzed as previously reported with slight modifications. Briefly, 6000 LNCaP cells were seeded in 6-well microplates (Greiner Bio-One GmbH, Frickenhausen, Germany) and cultivated overnight to allow cell adhesion. The cell culture medium was replaced by serum-free RPMI-1640 medium (2 mL/well) and the microplates were further incubated at 37 °C. After 1 h, five different activity concentrations (0.05, 0.5, 1, 5, and 50 kBq/mL) of the ^225Ac-radioconjugates were added in triplicate. After 1 or 4 h of incubation at 37 °C, the supernatants were replaced by fresh RPMI-1640 medium with 10% FCS (2 mL/well) and plates were incubated at 37 °C for 8 d. Finally, the cell culture medium was discarded and colonies were stained with 0.5% crystal violet in 50% methanol (1 mL/well) for 30 min, after which the plates were rinsed three times with deionized water and subsequently air-dried. The plates were scanned with an Amersham Typhoon 5 Scanner (Cytiva Europe GmbH, Freiburg, Germany) and the colonies were counted using the Image-Quant TL software (Version 8.1, Cytiva Europe GmbH, Freiburg, Germany).

Series [2] concerns LNCaP tumor-bearing SCID mice. The format is in vivo, mouse. On the procedure:
Formalin-fixed and paraffin-embedded mouse tissues were cut in 5 µm sections and immunostained with appropriate antibodies according to standard techniques as well as with standard H&E staining. Antigen retrieval was performed in citrate buffer (pH 6) for all primary antibodies: Ki-67 (clone MIB1, DAKO; dilution 1:200), γH2AX (clone JBW301, Millipore; dilution 1:2500) and PSMA (clone YPSMA-1, Abcam; dilution 1:1000). The presence or absence of necrosis and its percentage in the tumor samples were evaluated by experienced pathologist. […] The data were analyzed using Kruskal-Wallis test followed by Dunn post hoc test using GraphPad Prism version 7.05 (GraphPad Software, San Diego, CA, USA).

Marks after values point to notes of the source that are not given here.

Experimental findings from article PMC9691366, “Modulating the pharmacokinetic profile of Actinium-225-labeled macropa-derived radioconjugates by dual targeting of PSMA and albumin” (Theranostics, 2022) are described below.

For `O=C(O)CC[C@H](NC(=O)N[C@@H](CCCCNC(=O)[C@H](Cc1ccc2ccccc2c1)NC(=O)[C@H]1CC[C@H](CNC(=O)[C@H](CCCCn2cc(COc3cc(CN4CCOCCOCCN(Cc5cc(OCc6cn(CCCC[C@H](NC(=O)[C@H](CCC(=O)O)NC(=O)CCCc7ccc(I)cc7)C(=O)NC[C@H]7CC[C@H](C(=O)N[C@@H](Cc8ccc9ccccc9c8)C(=O)NCCCC[C@H](NC(=O)N[C@@H](CCC(=O)O)C(=O)O)C(=O)O)CC7)nn6)cc(C(=O)O)n5)CCOCCOCC4)nc(C(=O)O)c3)nn2)NC(=O)[C@H](CCC(=O)O)NC(=O)CCCc2ccc(I)cc2)CC1)C(=O)O)C(=O)O` [[^225Ac]Ac-mcp-D-alb-PSMA, metal not drawn], in series [1], the “^225Ac release (decomplexation, radio-TLC)” value is recorded as “did not show any ^225Ac release”. Further, the “inhibition of colony formation” value in the series on LNCaP cells (0.05 kBq/mL) was “about 50%”; in the series on LNCaP cells (0.5 kBq/mL) it was “virtually abrogated clonogenic activity”. In addition, the “EC50 for 1 h treatment” value in the series on LNCaP cells is reported as 0.0519 (0.0353 to 0.0753)^# kBq/mL. Further, the “H&E stain of tumor tissue (necrosis)” value in series [2] (72, 120 and 168 h p.i.) is listed as “necrotic lesions in the group 72 h p.i”. Also, the “average γH2AX histoscore, kidney” value in series [2] (mouse, in vivo) came out at 99.
Take `O=C(O)CC[C@H](NC(=O)N[C@@H](CCCCNC(=O)[C@H](Cc1ccc2ccccc2c1)NC(=O)[C@H]1CC[C@H](CNC(=O)[C@H](CCCCn2cc(COc3cc(CN4CCOCCOCCN(Cc5cccc(C(=O)O)n5)CCOCCOCC4)nc(C(=O)O)c3)nn2)NC(=O)[C@H](CCC(=O)O)NC(=O)CCCc2ccc(I)cc2)CC1)C(=O)O)C(=O)O` [[^225Ac]Ac-mcp-M-alb-PSMA, metal not drawn]: in series [1], the “^225Ac release (decomplexation, radio-TLC)” value is reported as “did not show any ^225Ac release”. Besides, the “inhibition of colony formation” value in the series with LNCaP cells (0.5 kBq/mL) was “about 50%”. For the same molecule, the “inhibition of colony formation” value with LNCaP cells (5 kBq/mL) is reported as “almost complete inhibition of colony formation”. Moreover, the “EC50 for 1 h treatment” value in the series with LNCaP cells is given as 0.5233 (0.4010 to 0.6767)^# kBq/mL. In series [2] (compared to untreated controls), the “Ki67 expression in tumor (cellular proliferation)” value was “did not show any significant decrease in proliferation” and the “γH2AX staining of tumor tissue (DNA damage)” value is “significant DNA damage in tumor cells”. Moreover, in series [2] (mouse, in vivo), the “H&E stain of liver tissue (necrosis)” value is given as “significant necrosis” and the “average γH2AX histoscore, kidney” value came to 62.
